Assay: Approximate solubility at ambient temperature
Format: physicochemical
Method: Approximate solubility values were measured for the as-received material at ambient temperature. […] The approximate solubility values were considered in the design of form screen experiments.

approximate solubility (MTBE, toluene, water, and select solvent mixtures): Limited to intermediate solubility
approximate solubility (heptane): low solubility
approximate solubility (most of the organic solvents tested): high solubility
Compound: CC(C)n1nccc1-c1ncccc1CO [compound (3)]

Reference: US20220324833A1, “PROCESS FOR PREPARATION OF 2-HYDROXY-6-((2-(1-ISOPROPYL-1H-PYRAZOL-5-YL)PYRIDIN-3-YL)METHOXY)BENZALDEHYDE” (Global Blood Therapeutics, Inc., priority 2020, published 2022)
